Experimental data published in ChEMBL document CHEMBL5131383, “Structure-based design, synthesis, and evaluation of inhibitors with high selectivity for PARP-1 over PARP-2” (Eur J Med Chem, 2022).
The source made the active and inactive calls. No cut-off for these calls is given here.

Legend:
[1] = molecular target: T1, Poly [ADP-ribose] polymerase 1 (Homo sapiens, UniProt P09874); test: Inhibition of human PARP1 using NAD+ as substrate at 5 nM incubated for 1 hr by ELISA relative to control
[2] = molecular target: T2, Poly [ADP-ribose] polymerase 2 (Homo sapiens, UniProt Q9UGN5); test: Inhibition of human PARP2 using NAD+ as substrate at 5 nM incubated for 1 hr by ELISA relative to control
[3] = molecular target: T1, Poly [ADP-ribose] polymerase 1; test: Inhibition of human PARP1 using NAD+ as substrate incubated for 1 hr by ELISA
Mus musculus = test: In vivo inhibition of PARP1 in athymic BALB/c mouse xenografted with human BRCA1 mutant MDA-MB-436 cells assessed as prevention of PAR formation 50 mg/kg/day, po measured after 48 hrs by Western blot analysis; format: functional, organism-based
MDA-MB-436 = test: Antitumor activity against human BRCA1 mutant MDA-MB-436 cells xenografted athymic BALB/c mouse assessed as inhibition of tumor volume at 50 mg/kg/day, po administered for 18 days and measured twice weekly; format: functional, organism-based; conditions: time 18.0 day
[4] = Toxicity athymic BALB/c mouse xenografted with human BRCA1 mutant MDA-MB-436 cells assessed as change in body weight at 50 mg/kg/day, po administered for 18 days and measured twice weekly; format: organism-based; conditions: in vivo, 432 h, time 18 day
MX1 = test: Antiproliferative activity against human BRCA mutant MX1 cells assessed as inhibition of cell growth incubated for 48 hrs by MTT assay; format: functional, cell-based; conditions: MX1, 48 h
A549 [5] = test: Antiproliferative activity against human A549 cells assessed as inhibition of cell growth incubated for 48 hrs by MTT assay; format: functional, cell-based; conditions: A549, 48 h
[6] = molecular target: T2, Poly [ADP-ribose] polymerase 2; test: Inhibition of human PARP2 using NAD+ as substrate incubated for 1 hr by ELISA
MCF7 = test: Antiproliferative activity against human MCF7 cells assessed as inhibition of cell growth incubated for 48 hrs by MTT assay; format: functional, cell-based; conditions: MCF7, 48 h
A549 [7] = test: […] human A549 cells assessed as reduction in PAR level measured after 48 hrs by Western blot analysis; format: functional, cell-based; conditions: dose 2.5-10 µM, DDE = dose-dependent effect
Homo sapiens = organism: Homo sapiens; test: Selectivity index, ratio of IC50 for human PARP2 to IC50 for human PARP1

T2 sequence (Q9UGN5 whole entry): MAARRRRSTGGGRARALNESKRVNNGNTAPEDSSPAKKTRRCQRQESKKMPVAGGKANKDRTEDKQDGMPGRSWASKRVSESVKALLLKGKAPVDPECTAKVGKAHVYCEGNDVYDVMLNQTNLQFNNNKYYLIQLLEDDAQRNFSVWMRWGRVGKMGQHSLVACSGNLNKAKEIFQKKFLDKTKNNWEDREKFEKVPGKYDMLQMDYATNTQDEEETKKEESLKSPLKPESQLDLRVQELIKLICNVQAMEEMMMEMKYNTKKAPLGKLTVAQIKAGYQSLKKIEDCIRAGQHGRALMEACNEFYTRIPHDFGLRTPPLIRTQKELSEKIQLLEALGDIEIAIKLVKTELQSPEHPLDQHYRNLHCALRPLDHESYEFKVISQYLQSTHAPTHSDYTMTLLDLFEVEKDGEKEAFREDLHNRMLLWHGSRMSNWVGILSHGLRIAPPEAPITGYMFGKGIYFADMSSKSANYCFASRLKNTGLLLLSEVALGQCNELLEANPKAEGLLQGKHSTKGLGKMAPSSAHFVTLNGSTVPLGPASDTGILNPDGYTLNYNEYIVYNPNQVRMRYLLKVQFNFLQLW
T1 sequence (P09874 whole entry): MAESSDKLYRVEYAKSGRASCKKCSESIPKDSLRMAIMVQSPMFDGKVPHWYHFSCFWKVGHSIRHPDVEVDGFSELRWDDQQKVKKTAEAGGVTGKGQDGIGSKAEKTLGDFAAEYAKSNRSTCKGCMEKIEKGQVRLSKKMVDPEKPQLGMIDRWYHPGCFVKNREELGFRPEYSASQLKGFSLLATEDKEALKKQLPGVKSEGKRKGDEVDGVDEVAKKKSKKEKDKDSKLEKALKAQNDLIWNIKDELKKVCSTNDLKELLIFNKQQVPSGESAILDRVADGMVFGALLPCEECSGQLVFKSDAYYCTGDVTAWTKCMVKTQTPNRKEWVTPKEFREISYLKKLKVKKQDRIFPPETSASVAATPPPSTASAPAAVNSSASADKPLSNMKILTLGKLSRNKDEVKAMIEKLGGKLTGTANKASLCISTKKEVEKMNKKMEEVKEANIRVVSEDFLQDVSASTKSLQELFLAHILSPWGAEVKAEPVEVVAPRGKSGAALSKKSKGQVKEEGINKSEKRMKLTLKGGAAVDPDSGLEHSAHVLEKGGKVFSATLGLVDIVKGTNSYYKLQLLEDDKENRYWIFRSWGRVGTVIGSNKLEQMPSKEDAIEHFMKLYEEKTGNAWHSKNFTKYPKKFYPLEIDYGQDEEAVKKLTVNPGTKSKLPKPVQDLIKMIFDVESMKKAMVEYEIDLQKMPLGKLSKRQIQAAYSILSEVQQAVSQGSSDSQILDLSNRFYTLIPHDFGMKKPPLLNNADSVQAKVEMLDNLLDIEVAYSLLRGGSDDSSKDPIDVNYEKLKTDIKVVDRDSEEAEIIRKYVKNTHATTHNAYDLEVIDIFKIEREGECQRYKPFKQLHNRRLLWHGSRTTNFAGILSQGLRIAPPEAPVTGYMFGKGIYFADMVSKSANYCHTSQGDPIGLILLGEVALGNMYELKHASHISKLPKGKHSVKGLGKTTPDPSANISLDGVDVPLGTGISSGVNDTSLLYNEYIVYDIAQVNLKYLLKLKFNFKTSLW

Row | SMILES | inhibition [1] [%] | inhibition [2] [%] | also measured
1 | C[C@@H]1CN(Cc2cccc(-c3[nH]c4cc(F)cc5c4c3CCNC5=O)c2)CCN1 | 78.3 | 50.2 | –
2 | CC(C)N1CCN(Cc2ccc(-c3[nH]c4cc(F)cc5c4c3CCNC5=O)cc2)CC1 | 83.9 | 36.5 | –
3 | C[C@@H]1CN(Cc2cccc(-c3[nH]c4cc(F)cc5c4c3CCNC5=O)c2)CCN1C(=O)OC(C)(C)C | 16.3 | 49.4 | –
4 | C[C@@H]1CN(Cc2ccc(-c3[nH]c4cc(F)cc5c4c3CCNC5=O)cc2)CCN1 | 90.4 | 58.8 | IC50 [3]: 0.66 nM; inhibition (Mus musculus): Active; Activity (MDA-MB-436): Active; Activity [4]: Toxic; IC50 (MX1): 16800 nM; IC50 (A549 [5]): 48200 nM; IC50 [6]: 2.91 nM; IC50 (MCF7): 46500 nM
5 | CC(C)(C)OC(=O)NC1CCCN(Cc2ccc(-c3[nH]c4cc(F)cc5c4c3CCNC5=O)cc2)C1 (stereo unspecified) | 90.1 | 34.8 | –
6 | CC(C)(C)OC(=O)NC1CCCN(Cc2cccc(-c3[nH]c4cc(F)cc5c4c3CCNC5=O)c2)C1 (stereo unspecified) | 55.6 | 43.2 | –
7 | CC1(NC(=O)OC(C)(C)C)CCN(Cc2ccc(-c3[nH]c4cc(F)cc5c4c3CCNC5=O)cc2)CC1 | 87 | 40.5 | –
8 | CC1(N)CCN(Cc2cccc(-c3[nH]c4cc(F)cc5c4c3CCNC5=O)c2)CC1 | 79.2 | 21.3 | –
9 | O=C1NCCc2c(-c3ccc(CN4CCn5c(nnc5C(F)(F)F)C4)cc3)[nH]c3cc(F)cc1c23 | 69.1 | 23.5 | –
10 | C[C@@H]1CN(Cc2ccc(-c3[nH]c4cc(F)cc5c4c3CCNC5=O)cc2)CCN1C(=O)OC(C)(C)C | 31.2 | 20.3 | –
11 | NC1CCN(Cc2cccc(-c3[nH]c4cc(F)cc5c4c3CCNC5=O)c2)CC1 | 85.8 | 15.3 | IC50 [3]: 0.96 nM; inhibition (Mus musculus): Active; Activity (MDA-MB-436): Active; Activity [4]: Non-Toxic; IC50 (MX1): 9460 nM; IC50 (A549 [5]): 106000 nM; IC50 [6]: 61.9 nM; Activity (A549 [7]): Dde; IC50 (MCF7): 124000 nM
12 | O=C1NCCc2c(-c3ccc(CN4CCCC(F)(F)C4)cc3)[nH]c3cc(F)cc1c23 | 69.3 | 20.5 | –
13 | Cc1ccc(-c2[nH]c3cc(F)cc4c3c2CCNC4=O)cc1[N+](=O)[O-] | 93.2 | 54.6 | –
14 | NC1CCCN(Cc2cccc(-c3[nH]c4cc(F)cc5c4c3CCNC5=O)c2)C1 (stereo unspecified) | 64.8 | 13.1 | –
15 | O=C1NCCc2c(-c3cccc(CN4CCC(F)(F)CC4)c3)[nH]c3cc(F)cc1c23 | 38.4 | 24.3 | –
16 | CC(C)(C)OC(=O)NC1CCN(Cc2ccc(-c3[nH]c4cc(F)cc5c4c3CCNC5=O)cc2)CC1 | 82 | 42.4 | IC50 [3]: 1.17 nM; Ratio IC50 (Homo sapiens): 6.9; IC50 [6]: 8.04 nM
17 | CC(=O)N1CCN(Cc2ccc(-c3[nH]c4cc(F)cc5c4c3CCNC5=O)cc2)CC1 | 82.9 | 28.7 | IC50 [3]: 1.31 nM; Ratio IC50 (Homo sapiens): 4.9; IC50 [6]: 6.4 nM
18 | O=C1NCCc2c(-c3ccc(CN4CCN(CCO)CC4)cc3)[nH]c3cc(F)cc1c23 | 84.5 | 25.1 | IC50 [3]: 1.54 nM; Ratio IC50 (Homo sapiens): 4.3; IC50 [6]: 6.68 nM

Row | SMILES | inhibition [1] [%] | inhibition [2] [%] | also measured
19 | CC(C)N1CCN(Cc2cccc(-c3[nH]c4cc(F)cc5c4c3CCNC5=O)c2)CC1 | 56.6 | 29 | –
20 | CC(C)(C)OC(=O)NC1CCN(Cc2cccc(-c3[nH]c4cc(F)cc5c4c3CCNC5=O)c2)CC1 | 76.5 | 40.7 | –
21 | O=C1NCCc2c(-c3ccc(N4CCNCC4)cc3)[nH]c3cc(F)cc1c23 | 83.9 | 55.8 | –
22 | CC1(NC(=O)OC(C)(C)C)CCN(Cc2cccc(-c3[nH]c4cc(F)cc5c4c3CCNC5=O)c2)CC1 | 59.7 | 41.8 | –
23 | O=C1NCCc2c(-c3ccc(CN4CCN(c5cccc(C(F)(F)F)c5)CC4)cc3)[nH]c3cc(F)cc1c23 | 22.1 | 17.3 | –
24 | O=C1NCCc2c(-c3ccc(CN4CCC(F)(F)CC4)cc3)[nH]c3cc(F)cc1c23 | 68.8 | 18 | –
25 | O=C1NCCc2c(-c3ccc(CN4CCN(C(=O)C5CC5)CC4)cc3)[nH]c3cc(F)cc1c23 | 85 | 44.1 | –
26 | CC(C)(C)OC(=O)N1CCN(Cc2ccc(-c3[nH]c4cc(F)cc5c4c3CCNC5=O)cc2)CC1 | 74.2 | 33.8 | –
27 | NC1CCN(Cc2ccc(-c3[nH]c4cc(F)cc5c4c3CCNC5=O)cc2)CC1 | 95.7 | 63.8 | IC50 [3]: 0.41 nM; IC50 (MX1): 65400 nM; IC50 (A549 [5]): 85900 nM; IC50 [6]: 4.21 nM; IC50 (MCF7): 59500 nM
28 | CC1(N)CCN(Cc2ccc(-c3[nH]c4cc(F)cc5c4c3CCNC5=O)cc2)CC1 | 89.9 | 45.2 | –
29 | NC1CCCN(Cc2ccc(-c3[nH]c4cc(F)cc5c4c3CCNC5=O)cc2)C1 (stereo unspecified) | 87.9 | 33.5 | –
30 | O=C1NCCc2c(-c3ccc(N4CCOCC4)cc3)[nH]c3cc(F)cc1c23 | 88.9 | 54.2 | –
31 | CC(=O)N1CCN(Cc2cccc(-c3[nH]c4cc(F)cc5c4c3CCNC5=O)c2)CC1 | 49.8 | 30.4 | –
32 | CCOC(=O)C1CCCN(Cc2ccc(-c3[nH]c4cc(F)cc5c4c3CCNC5=O)cc2)C1 (stereo unspecified) | 86.5 | 36.3 | –
33 | O=C1NCCc2c(-c3cccc(CN4CCN(C(=O)C5CC5)CC4)c3)[nH]c3cc(F)cc1c23 | 46.1 | 20.7 | –
34 | O=C1NCCc2c(-c3cccc(CN4CCn5c(nnc5C(F)(F)F)C4)c3)[nH]c3cc(F)cc1c23 | 48.4 | 24.4 | –
35 | CN1CCN(Cc2cccc(-c3[nH]c4cc(F)cc5c4c3CCNC5=O)c2)CC1 | 61.2 | 29 | –

The next lines start with results.

Row | inhibition [1] [%] | inhibition [2] [%] | SMILES | also measured
36 | 83.3 | 50.1 | COC(=O)c1ccc(-c2[nH]c3cc(F)cc4c3c2CCNC4=O)cc1 | –
37 | 47.2 | 29.7 | Cc1cc(N2CCN(Cc3ccc(-c4[nH]c5cc(F)cc6c5c4CCNC6=O)cc3)CC2)n(-c2ccccc2)n1 | –
38 | 26.5 | 36.8 | O=C1NCCc2c(-c3ccc(CN4CCN(C(c5ccccc5)c5ccccc5)CC4)cc3)[nH]c3cc(F)cc1c23 | –
39 | 93.6 | 57.8 | O=Cc1ccc(-c2[nH]c3cc(F)cc4c3c2CCNC4=O)cc1 | –
40 | 43.2 | 48.1 | O=C(O)c1ccc(-c2[nH]c3cc(F)cc4c3c2CCNC4=O)cc1 | –
41 | 76.3 | 58.9 | Nc1cccc(-c2[nH]c3cc(F)cc4c3c2CCNC4=O)c1 | –
42 | 98 | 77.6 | CNCc1ccc(-c2[nH]c3cc(F)cc4c3c2CCNC4=O)cc1 [RUCAPARIB] | inhibition (Mus musculus): Active; IC50 (MX1): 6510 nM; IC50 (A549 [5]): 32200 nM; IC50 (MCF7): 6610 nM
43 | 94 | 35.2 | CCN(CC)Cc1ccc(-c2[nH]c3cc(F)cc4c3c2CCNC4=O)cc1 | IC50 [3]: 0.61 nM; IC50 (MX1): 49300 nM; IC50 (A549 [5]): 75800 nM; IC50 [6]: 11.2 nM; IC50 (MCF7): 80600 nM
44 | 93.7 | 47 | O=C1NCCc2c(-c3ccc(CN4CCN(c5ncccn5)CC4)cc3)[nH]c3cc(F)cc1c23 | IC50 [3]: 1.19 nM; Ratio IC50 (Homo sapiens): 4.8; IC50 [6]: 5.71 nM
45 | 88.7 | 55.5 | O=C1NCCc2c(-c3ccc([N+](=O)[O-])cc3)[nH]c3cc(F)cc1c23 | –
46 | 56.2 | 42.3 | CC(C)(C)c1ccc(-c2[nH]c3cc(F)cc4c3c2CCNC4=O)cc1 | –
47 | 82.8 | 49.4 | COc1ccc(-c2[nH]c3cc(F)cc4c3c2CCNC4=O)cc1 | –
48 | 72 | 35.9 | COc1cccc(-c2[nH]c3cc(F)cc4c3c2CCNC4=O)c1 | –
49 | 44.9 | 43.3 | O=C(O)c1cccc(-c2[nH]c3cc(F)cc4c3c2CCNC4=O)c1 | –
50 | 84.5 | 46 | Nc1ccc(-c2[nH]c3cc(F)cc4c3c2CCNC4=O)cc1 | –
51 | 94.1 | 53.4 | N#Cc1ccc(-c2[nH]c3cc(F)cc4c3c2CCNC4=O)cc1 | –
52 | 50.6 | 36.4 | O=C1NCCc2c(-c3ccc(OCc4ccccc4)cc3)[nH]c3cc(F)cc1c23 | –
53 | 67.4 | 42.7 | O=C1NCCc2c(-c3ccc(B(O)O)cc3)[nH]c3cc(F)cc1c23 | –
54 | 83.1 | 42 | CN1CCN(Cc2ccc(-c3[nH]c4cc(F)cc5c4c3CCNC5=O)cc2)CC1 | –
